Source: ChEMBL document CHEMBL3217727, “Berberine azoles as antimicrobial agents: synthesis, biological evaluation and their interactions with human serum albumin” (Medchemcomm, 2013)
In brackets after ≈: the same amount, converted by molar mass.

Columns and labels:
Assay type in all cases: functional
Saccharomyces cerevisiae = test: Antimicrobial activity against Saccharomyces cerevisiae ATCC 9763 after 24 hrs by microbroth dilution method; details: ATCC 9763, 24 h
Cyberlindnera jadinii = test: Antimicrobial activity against Candida utilis ATCC 9950 after 24 hrs by microbroth dilution method; details: Williopsis jadinii, ATCC 9950, 24 h
Candida = test: Antimicrobial activity against Candida mycoderma after 24 hrs by microbroth dilution method
Micrococcus luteus = test: Antimicrobial activity against Micrococcus luteus ATCC 4698 after 24 hrs by microbroth dilution method; details: NCTC 2665, 24 h
Candida albicans = test: Antimicrobial activity against Candida albicans ATCC 90029 after 24 hrs by microbroth dilution method; details: ATCC 90029, 24 h
Bacillus spizizenii = test: Antimicrobial activity against Bacillus subtilis ATCC 6633 after 24 hrs by microbroth dilution method; details: ATCC 6633, 24 h
Pseudomonas aeruginosa = test: Antimicrobial activity against Pseudomonas aeruginosa ATCC 27853 after 24 hrs by microbroth dilution method; details: ATCC 27853, 24 h
Escherichia coli = test: Antimicrobial activity against Escherichia coli […] after 24 hrs by microbroth dilution method
Staphylococcus aureus [1] = test: Antimicrobial activity against methicillin-resistant Staphylococcus aureus N315 after 24 hrs by microbroth dilution method; details: N315, 24 h
Proteus vulgaris = test: Antimicrobial activity against Proteus vulgaris ATCC 8427 after 24 hrs by microbroth dilution method; details: ATCC 8427, 24 h
Staphylococcus aureus [2] = test: Antimicrobial activity against Staphylococcus aureus ATCC 25923 after 24 hrs by microbroth dilution method; details: ATCC 25923, 24 h
Shigella dysenteriae = test: Antimicrobial activity against Shigella dysenteriae ATCC 51252 after 24 hrs by microbroth dilution method; details: ATCC 51252, 24 h

| Compound | MIC80 (Saccharomyces cerevisiae) [µg/mL] | MIC80 (Cyberlindnera jadinii) [µg/mL] | MIC80 (Candida) [µg/mL] | MIC (Micrococcus luteus) [µg/mL] | MIC80 (Candida albicans) [µg/mL] | MIC (Bacillus spizizenii) [µg/mL] | MIC (Pseudomonas aeruginosa) [µg/mL] | MIC (Escherichia coli) [µg/mL] | MIC (Staphylococcus aureus [1]) [µg/mL] | MIC (Proteus vulgaris) [µg/mL] | MIC (Staphylococcus aureus [2]) [µg/mL] | MIC (Shigella dysenteriae) [µg/mL] |
| --- | --- | --- | --- | --- | --- | --- | --- | --- | --- | --- | --- | --- |
| COc1ccc2cc3[n+](cc2c1OCCN(CCn1cncn1)Cc1ccc(Cl)cc1Cl)CCc1cc2c(cc1-3)OCO2.[Cl-] | 16 | 16 | 4 | 16 | 4 | 8 | – | – | – | – | – | – |
| Fc1ccccc1CN(CCBr)CCn1cncn1 | 64 (≈ 196 µM) | 128 (≈ 391 µM) | 256 (≈ 782 µM) | 64 (≈ 196 µM) | 32 (≈ 97.8 µM) | 256 (≈ 782 µM) | – | – | – | – | – | – |
| COc1ccc2cc3[n+](cc2c1OCCN(CCn1cncn1)Cc1cccc(F)c1)CCc1cc2c(cc1-3)OCO2.[Cl-] | 16 | 8 | 4 | 16 | 4 | 8 | – | – | – | – | – | – |
| Clc1ccc(CN(CCBr)CCn2cncn2)cc1 | 64 (≈ 186 µM) | 128 (≈ 372 µM) | 256 (≈ 745 µM) | 512 (≈ 1490 µM) | 128 (≈ 372 µM) | 256 (≈ 745 µM) | – | – | – | – | – | – |
| Fc1ccc(CN(CCBr)CCn2ccnc2)c(F)c1 | 128 (≈ 372 µM) | 64 (≈ 186 µM) | 32 (≈ 93 µM) | 64 (≈ 186 µM) | 64 (≈ 186 µM) | 128 (≈ 372 µM) | 32 (≈ 93 µM) | 128 (≈ 372 µM) | 64 (≈ 186 µM) | 256 (≈ 744 µM) | 64 (≈ 186 µM) | 128 (≈ 372 µM) |
| Cc1cc2ncn(CCN(CCBr)Cc3ccc(F)cc3F)c2cc1C | 256 (≈ 606 µM) | 128 (≈ 303 µM) | 64 (≈ 152 µM) | 64 (≈ 152 µM) | 128 (≈ 303 µM) | 32 (≈ 75.8 µM) | 64 (≈ 152 µM) | 128 (≈ 303 µM) | 128 (≈ 303 µM) | 128 (≈ 303 µM) | 64 (≈ 152 µM) | 16 (≈ 37.9 µM) |
| COc1ccc2cc3[n+](cc2c1OCCN(CCn1cnc2ccccc21)Cc1ccc(F)cc1F)CCc1cc2c(cc1-3)OCO2.[Cl-] | 32 | 16 | 32 | 16 | 32 | 32 | 16 | 32 | 32 | 32 | 16 | 8 |
